COc1c(O)cc2c(c1O)[C@@H]1O[C@H](CO)[C@@H](O)[C@H](O)[C@H]1OC2=O
solubility (mole fraction)
Conditions	298.15 K	303.15 K	308.15 K	313.15 K	318.15 K
in DMSO	0.0168	0.0182	0.0198	0.0212	0.0229
in water	7.5e-05	9.88e-05	0.000123	0.000151	0.000185

Reference: BigSolDB 2.1
